From ChEMBL document CHEMBL4024707, “Using gene expression database to uncover biology functions of 1,4-disubstituted 1,2,3-triazole analogues synthesized via a copper (I)-catalyzed reaction” (Eur J Med Chem, 2017)

Tests used:
[1] = test system: Hep 3B2; experiment: Cell cycle arrest in human Hep3B cells assessed as accumulation at G0/G1 phase at 2.5 uM after 72 hrs by propidium iodide staining based flow cytometry (reference value: 41.6 to 46.2%); assay type: functional
[2] = test system: Hep 3B2; experiment: Cell cycle arrest in human Hep3B cells assessed as accumulation at G0/G1 phase at 5 uM after 48 hrs by propidium iodide staining based flow cytometry (reference value: 39.7 to 40.4%); assay type: functional
[3] = test system: Hep 3B2; experiment: Cell cycle arrest in human Hep3B cells assessed as accumulation at S phase at 40 uM after 24 hrs by propidium iodide staining based flow cytometry (reference value: 22.6 to 27.1%); assay type: functional
[4] = test system: Hep 3B2; experiment: Cell cycle arrest in human Hep3B cells assessed as accumulation at G0/G1 phase at 40 uM after 24 hrs by propidium iodide staining based flow cytometry (reference value: 36.3 to 39.0%); assay type: functional
[5] = test system: Hep 3B2; experiment: Induction of apoptosis in human Hep3B cells assessed as ratio of cleaved caspase-3 to beta actin level at 40 uM after 72 hrs in presence of curcumin by Western blot analysis; assay type: functional
[6] = test system: Hep 3B2; experiment: Cell cycle arrest in human Hep3B cells assessed as accumulation at S phase at 40 uM after 48 hrs by propidium iodide staining based flow cytometry (reference value: 20.8 to 24%); assay type: functional
[7] = test system: Hep 3B2; experiment: Cell cycle arrest in human Hep3B cells assessed as accumulation at sub-G1 phase at 40 uM after 24 hrs by propidium iodide staining based flow cytometry (reference value: 1.9 to 3.6%); assay type: functional
[8] = test system: Hep 3B2; experiment: Cell cycle arrest in human Hep3B cells assessed as accumulation at G2/M phase at 2.5 uM after 72 hrs by propidium iodide staining based flow cytometry (reference value: 28.7 to 32.3%); assay type: functional
[9] = test system: Hep 3B2; experiment: Cell cycle arrest in human Hep3B cells assessed as accumulation at G0/G1 phase at 5 uM after 24 hrs by propidium iodide staining based flow cytometry (reference value: 36.3 to 39.0%); assay type: functional
[10] = test system: Hep 3B2; experiment: Induction of apoptosis in human Hep3B cells assessed as ratio of cleaved caspase-3 to beta actin level at 10 uM after 48 hrs in presence of curcumin by Western blot analysis; assay type: functional
[11] = test system: HT-29; experiment: Cytotoxicity against human HT-29 cells after 6 days by MTT assay; assay type: functional, cell-based; conditions: HT-29, 144 h
[12] = test system: Hep 3B2; experiment: Down regulation of PTPRC expression in human Hep3B cells at 1 uM after 6 to 24 hrs by L1000 expression profiling method relative to control; assay type: functional
[13] = test system: Hep 3B2; experiment: Growth inhibition of human Hep3B cells at 2.5 uM after 48 hrs in presence of curcumin by MTT assay; assay type: functional
[14] = test system: Hep 3B2; experiment: Down regulation of PPP1R13B expression in human Hep3B cells at 1 uM after 6 to 24 hrs by L1000 expression profiling method relative to control; assay type: functional
[15] = test system: Hep 3B2; experiment: Down regulation of PAPD7 expression in human Hep3B cells at 1 uM after 6 to 24 hrs by L1000 expression profiling method relative to control; assay type: functional
[16] = test system: Hep 3B2; experiment: Down regulation of GNA15 expression in human Hep3B cells at 1 uM after 6 to 24 hrs by L1000 expression profiling method relative to control; assay type: functional
[17] = test system: Hep 3B2; experiment: Down regulation of ARNT2 expression in human Hep3B cells at 1 uM after 6 to 24 hrs by L1000 expression profiling method relative to control; assay type: functional
[18] = test system: Hep 3B2; experiment: Down regulation of HTRA1 expression in human Hep3B cells at 1 uM after 6 to 24 hrs by L1000 expression profiling method relative to control; assay type: functional
[19] = test system: Hep 3B2; experiment: Down regulation of FOS expression in human Hep3B cells at 1 uM after 6 to 24 hrs by L1000 expression profiling method relative to control; assay type: functional
[20] = test system: Hep 3B2; experiment: Down regulation of SNX13 expression in human Hep3B cells at 1 uM after 6 to 24 hrs by L1000 expression profiling method relative to control; assay type: functional
[21] = test system: Hep 3B2; experiment: Up regulation of CDKN1A expression in human Hep3B cells at 1 uM after 6 to 24 hrs by L1000 expression profiling method relative to control; assay type: functional
[22] = test system: Hep 3B2; experiment: Cytotoxicity against human Hep3B cells after 6 days by MTT assay; assay type: functional, cell-based; conditions: 144 h
[23] = test system: Hep 3B2; experiment: Down regulation of RTN2 expression in human Hep3B cells at 1 uM after 6 to 24 hrs by L1000 expression profiling method relative to control; assay type: functional
[24] = test system: Hep 3B2; experiment: Induction of autophagy in human Hep3B cells after 48 to 72 hrs by acridine orange staining based flow cytometry; assay type: functional, cell-based
[25] = test system: Hep 3B2; experiment: Down regulation of CHAC1 expression in human Hep3B cells at 1 uM after 6 to 24 hrs by L1000 expression profiling method relative to control; assay type: functional
[26] = test system: Hep 3B2; experiment: Down regulation of EXT1 expression in human Hep3B cells at 1 uM after 6 to 24 hrs by L1000 expression profiling method relative to control; assay type: functional
[27] = test system: Hep 3B2; experiment: Down regulation of NVL expression in human Hep3B cells at 1 uM after 6 to 24 hrs by L1000 expression profiling method relative to control; assay type: functional
[28] = test system: Hep 3B2; experiment: Induction of apoptosis in human Hep3B cells assessed as ratio of cleaved caspase-3 to beta actin level at 10 uM after 48 hrs in absence of curcumin by Western blot analysis; assay type: functional
[29] = test system: Hep 3B2; experiment: Up regulation of CDCA4 expression in human Hep3B cells at 1 uM after 6 to 24 hrs by L1000 expression profiling method relative to control; assay type: functional
[30] = test system: Hep 3B2; experiment: Down regulation of UBE2J1 expression in human Hep3B cells at 1 uM after 6 to 24 hrs by L1000 expression profiling method relative to control; assay type: functional
[31] = test system: Hep 3B2; experiment: Down regulation of MMP2 expression in human Hep3B cells at 1 uM after 6 to 24 hrs by L1000 expression profiling method relative to control; assay type: functional
[32] = test system: Hep 3B2; experiment: Down regulation of DNMT3A expression in human Hep3B cells at 1 uM after 6 to 24 hrs by L1000 expression profiling method relative to control; assay type: functional
[33] = test system: Hep 3B2; experiment: Down regulation of TGFB3 expression in human Hep3B cells at 1 uM after 6 to 24 hrs by L1000 expression profiling method relative to control; assay type: functional
[34] = molecular target: Glycogen synthase kinase-3 alpha (Homo sapiens) (UniProt P49840); experiment: Inhibition of GSK3alpha phosphorylation at Ser21 in human Hep3B cells assessed as ratio of phosphorylated […] to beta-actin level at 10 uM after 48 hrs by Western blot analysis; assay type: cell-based
[35] = test system: Hep 3B2; experiment: Down regulation of SUPV3L1 expression in human Hep3B cells at 1 uM after 6 to 24 hrs by L1000 expression profiling method relative to control; assay type: functional
[36] = test system: Hep 3B2; experiment: Induction of autophagy in human Hep3B cells assessed as ratio of LC3-2 to beta-actin level at 10 uM after 48 hrs in presence of curcumin by Western blot analysis; assay type: functional
[37] = test system: Hep 3B2; experiment: Down regulation of PPOX expression in human Hep3B cells at 1 uM after 6 to 24 hrs by L1000 expression profiling method relative to control; assay type: functional

Glycogen synthase kinase-3 alpha (Homo sapiens), sequence (P49840 2-483 limits assumed): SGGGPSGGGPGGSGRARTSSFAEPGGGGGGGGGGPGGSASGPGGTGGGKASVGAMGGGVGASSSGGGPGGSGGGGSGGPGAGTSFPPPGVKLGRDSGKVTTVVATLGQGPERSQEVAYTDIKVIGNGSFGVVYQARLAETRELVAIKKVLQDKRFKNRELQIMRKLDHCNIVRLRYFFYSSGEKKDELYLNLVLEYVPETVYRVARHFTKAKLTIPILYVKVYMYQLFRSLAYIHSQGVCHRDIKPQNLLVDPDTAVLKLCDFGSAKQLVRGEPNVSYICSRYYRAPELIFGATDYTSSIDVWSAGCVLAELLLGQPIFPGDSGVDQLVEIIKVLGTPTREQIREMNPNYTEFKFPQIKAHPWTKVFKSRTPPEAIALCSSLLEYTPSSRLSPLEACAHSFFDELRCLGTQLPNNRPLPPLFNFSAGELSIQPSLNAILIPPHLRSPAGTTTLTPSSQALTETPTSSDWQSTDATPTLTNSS

## COc1ccc(CNC(=O)Nc2ncc([N+](=O)[O-])s2)cc1
[1]
  Activity: 42.3%
[2]
  Activity: 38.5%
[3]
  Activity: 21.1%
[4]
  Activity: 35%
[5]
  Ratio: 1.1
[6]
  Activity: 14.9%
[7]
  Activity: 6.5%
[8]
  Activity: 35.3%
[9]
  Activity: 32.5%

## O=C1COc2ccccc2N1Cc1cn(CCC2OCCO2)nn1
[10]
  Ratio: 1.4
[11]
  IC50: 5.7 µM
[12]
  log2FC: -3.9957
[13]
  CI: 0.96
[14]
  log2FC: -3.1647
[15]
  log2FC: -3.2796
[16]
  log2FC: -4.0259
[17]
  log2FC: -5.0177
[18]
  log2FC: -3.2036
[19]
  log2FC: -3.1627
[20]
  log2FC: -4.142
[21]
  log2FC: 3.0523
[22]
  IC50: 0.5 µM
[23]
  log2FC: -4.1606
[24]
  Activity: Dose-dependent effect
[25]
  log2FC: -4.0849
[26]
  log2FC: -4.2621
[27]
  log2FC: -3.779
[28]
  Ratio: 2.8
[29]
  log2FC: 3.2705
[30]
  log2FC: -3.3451
[31]
  log2FC: -4.0779
[32]
  log2FC: -4.2565
[33]
  log2FC: -3.4573
[34]
  Ratio: 0.9
[35]
  log2FC: -4.4808
[36]
  Ratio: 10.5
[37]
  log2FC: -3.7552
